According to ChEMBL document CHEMBL3039007, “Structure-based identification of OATP1B1/3 inhibitors” (Mol Pharmacol, 2013):
Starred links: 1 amine or outer side, 2 acyl side, 3 side chain; linkers in the order of their positions; H or OH if unused. Positions of bridges follow the written chain, without caps; N, C: chain ends. Non-standard residues stand in square brackets, D forms with d. Residues, ends and D or L forms follow the SMILES beside them. Chains are numbered I, II in the order given. Actinocin(9to1) = Cc1c2oc3c(C)ccc(C(=O)[*:1])c3nc-2c(C(=O)[*:2])c(N)c1=O; NMeV = CN[C@H](C(=O)O)C(C)C; Sar = CNCC(=O)O

Key:
[1] = target: T1, Solute carrier organic anion transporter family member 1B3 (Homo sapiens, UniProt Q9NPD5); details: chinese hamster, cho, 10 µM
T1 sequence (Q9NPD5 whole entry): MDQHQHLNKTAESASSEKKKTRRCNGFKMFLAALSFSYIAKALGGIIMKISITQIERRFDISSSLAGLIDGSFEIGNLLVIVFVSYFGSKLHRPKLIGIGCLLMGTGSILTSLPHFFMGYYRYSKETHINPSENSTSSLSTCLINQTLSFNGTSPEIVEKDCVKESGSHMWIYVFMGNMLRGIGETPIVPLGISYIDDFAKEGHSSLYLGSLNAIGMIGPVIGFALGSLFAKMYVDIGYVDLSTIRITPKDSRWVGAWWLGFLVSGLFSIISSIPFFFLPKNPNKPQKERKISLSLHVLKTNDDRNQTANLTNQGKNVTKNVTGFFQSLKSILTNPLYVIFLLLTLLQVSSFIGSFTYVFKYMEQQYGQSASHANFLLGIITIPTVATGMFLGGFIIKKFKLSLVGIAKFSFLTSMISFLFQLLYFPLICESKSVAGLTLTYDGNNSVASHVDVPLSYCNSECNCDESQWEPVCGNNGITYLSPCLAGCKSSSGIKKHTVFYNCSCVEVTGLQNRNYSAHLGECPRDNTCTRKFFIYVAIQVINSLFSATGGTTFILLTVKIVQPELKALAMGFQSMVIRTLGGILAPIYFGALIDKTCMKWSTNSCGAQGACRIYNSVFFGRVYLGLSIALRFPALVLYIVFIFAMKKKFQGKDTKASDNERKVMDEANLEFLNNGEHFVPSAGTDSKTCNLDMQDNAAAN

[2] = target: T2, Solute carrier organic anion transporter family member 1B1 (Homo sapiens, UniProt Q9Y6L6); details: chinese hamster, cho, 10 µM
T2 sequence (Q9Y6L6 whole entry): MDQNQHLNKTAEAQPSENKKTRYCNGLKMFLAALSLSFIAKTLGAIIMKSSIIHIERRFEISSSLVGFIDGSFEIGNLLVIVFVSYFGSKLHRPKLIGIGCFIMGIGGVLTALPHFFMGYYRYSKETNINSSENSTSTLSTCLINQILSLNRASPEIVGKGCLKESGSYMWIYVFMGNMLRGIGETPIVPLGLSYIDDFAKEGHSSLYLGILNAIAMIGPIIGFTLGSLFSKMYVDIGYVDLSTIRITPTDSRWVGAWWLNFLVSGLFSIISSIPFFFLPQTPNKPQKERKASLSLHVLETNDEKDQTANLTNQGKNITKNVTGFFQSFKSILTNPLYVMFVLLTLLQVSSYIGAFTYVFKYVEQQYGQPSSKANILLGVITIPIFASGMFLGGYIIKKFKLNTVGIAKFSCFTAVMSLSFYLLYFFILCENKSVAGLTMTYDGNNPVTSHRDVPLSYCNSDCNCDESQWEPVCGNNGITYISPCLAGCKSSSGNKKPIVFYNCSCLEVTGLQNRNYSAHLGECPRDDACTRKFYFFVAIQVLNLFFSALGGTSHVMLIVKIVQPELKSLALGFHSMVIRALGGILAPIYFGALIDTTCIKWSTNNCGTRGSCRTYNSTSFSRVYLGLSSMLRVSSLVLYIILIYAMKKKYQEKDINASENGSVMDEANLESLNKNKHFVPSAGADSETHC

Structure (SMILES) | residual activity [1] | residual activity [2]
Cc1c2oc3c(C)ccc(C(=O)N[C@@H]4C(=O)N[C@H](C(C)C)C(=O)N5CCC[C@H]5C(=O)N(C)CC(=O)N(C)[C@@H](C(C)C)C(=O)O[C@@H]4C)c3nc-2c(C(=O)N[C@@H]2C(=O)N[C@H](C(C)C)C(=O)N3CCC[C@H]3C(=O)N(C)CC(=O)N(C)[C@@H](C(C)C)C(=O)O[C@@H]2C)c(N)c1=O [DACTINOMYCIN] (I: T[dV]P[Sar][NMeV] / II: T[dV]P[Sar][NMeV]; ester I:1-I:C, II:1-II:C; linker I:N-II:N via Actinocin(9to1)) | 85.16% | 57.98%
CCN(CCO)CCCC(C)Nc1ccnc2cc(Cl)ccc12.O=S(=O)(O)O (centres undefined) [HYDROXYCHLOROQUINE SULFATE] | 90.84% | 90.44%
CCC(N)C(O)c1ccc(O)c(O)c1.Cl (centres undefined) [ETHYLNOREPINEPHRINE HYDROCHLORIDE] | 104.2% | 130.8%
Cc1c(C)c2c(c(C)c1O)CCC(C)(CCCC(C)CCCC(C)CCCC(C)C)O2 (stereo not drawn) [alpha-TOCHOPHEROL] | 84.17% | 85.48%
C[C@]12CC[C@@H]3c4ccc(OCc5ccccc5)cc4CC[C@H]3[C@@H]1C[C@@H](O)[C@@H]2O | 102.7% | 100%
OCc1ccccc1O [SALICYL ALCOHOL] | 117.7% | 92.07%
CCCN(CCC)c1c([N+](=O)[O-])cc(C(F)(F)F)cc1[N+](=O)[O-] [TRIFLURALIN] | 102.7% | 93.6%
NC/C=C/C(=O)O [t-4-AMINOCROTONIC ACID (TACA)] | 94.21% | 119.6%
N=C(N)N [GUANIDINE] | 100% | 106.5%
C=C[C@H]1CN2CC[C@H]1C[C@H]2[C@H](O)c1ccnc2ccc(OC)cc12.C=C[C@H]1CN2CC[C@H]1C[C@H]2[C@H](O)c1ccnc2ccc(OC)cc12.O.O.O=S(=O)(O)O [QUININE SULFATE] | 99.87% | 92.08%
CC(=O)OCC(=O)[C@@]12OC3(CCCC3)O[C@@H]1C[C@H]1[C@@H]3CCC4=CC(=O)C=C[C@]4(C)[C@@]3(F)[C@@H](O)C[C@@]12C [AMCINONIDE] | 56.58% | 35.76%
COc1ccc(-c2cc(=O)c3c(O)c(OC)c(OC)cc3o2)cc1O [EUPATORIN] | 72.8% | 87.53%
O=C(O)c1cc2cc(F)ccc2[nH]1 [5-FLUOROINDOLE-2-CARBOXYLIC ACID] | 103.9% | 108.9%
C1CCC(C(CC2CCCCN2)C2CCCCC2)CC1.O=C(O)/C=C\C(=O)O (centres undefined) [PERHEXILINE MALEATE] | 92.29% | 68.81%
CN1CCOC(c2ccccc2)c2ccccc2C1 (centres undefined) [NEFOPAM] | 100.9% | 102.9%
C=CC(C)(O)CC/C=C(\C)CCC=C(C)C (centres undefined) [NEROLIDOL] | 131.1% | 147.7%
COc1cc(C/C=C/c2ccccc2)c(OC)cc1O [VIOLASTYRENE] | 47.88% | 27.49%
C=C(C)[C@H]1CC=C(C(=O)O)CC1 [PERILLIC ACID (-)] | 105% | 102.2%
ClC1=C(Cl)C2(Cl)C3C4C=CC(C4)C3C1(Cl)C2(Cl)Cl (centres undefined) [ALDRIN] | 124.9% | 121.9%
Cl.NNCc1ccccc1 [BENZYLHYDRAZINE HYDROCHLORIDE] | 108.9% | 122.4%
COc1c(N2C[C@@H]3CCCN[C@@H]3C2)c(F)cc2c(=O)c(C(=O)O)cn(C3CC3)c12.Cl [MOXIFLOXACIN HYDROCHLORIDE] | 94.01% | 106%

Structure (SMILES) | residual activity [1] | residual activity [2]
N[C@@H](CSCSC[C@H](N)C(=O)O)C(=O)O | 96.92% | 92.41%
CCNc1nc(Cl)nc(NC(C)C)n1 [ATRAZINE] | 96.21% | 133.8%
CCCCCCCCNC(C)C(O)c1ccc(SC(C)C)cc1 (centres undefined) [SULOCTIDIL] | 108.7% | 143.8%
CC(=O)OCC1=C(C(=O)[O-])N2C(=O)[C@@H](NC(=O)CSc3ccncc3)[C@H]2SC1.[Na+] [CEPHAPIRIN SODIUM] | 94.33% | 85.65%
CCOC(=O)c1ccc(N)cc1 [BENZOCAINE] | 100.6% | 129.5%
COc1ccc(-c2cc(=O)c3c(O)cc(O[C@H]4O[C@H](CO[C@@H]5O[C@@H](C)[C@H](O)[C@@H](O)[C@H]5O)[C@@H](O)[C@H](O)[C@H]4O)cc3o2)cc1 [BUDDLEOFLAVONOLOSIDE] | 212.4% | 69.14%
COc1cccc2c1CCC1=CC(=O)CC[C@@]12C [14-METHOXY-4,4-BISNOR-4,8,11,13-PODOCARPATETRAEN-3-ONE] | 94.94% | 143.1%
COc1c2c(c(CC=C(C)C)c3oc(=O)c(-c4ccc(O)cc4)c(O)c13)OC(C)(C)C=C2 [LONCHOCARPIC ACID] | 36.3% | 26.49%
O=C1CN(/N=C/c2ccc(-c3ccc([N+](=O)[O-])cc3)o2)C(=O)[N-]1.[Na+] [DANTROLENE SODIUM] | 114.3% | 111.7%
Cc1cccc(Nc2ccccc2C(=O)O)c1C [MEFENAMIC ACID] | 72.63% | 63.23%
CCCCCC1C(=O)CCC1CC(=O)O (centres undefined) [DIHYDROJASMONIC ACID] | 102.5% | 113.7%
Nc1nc2ccc(OC(F)(F)F)cc2s1 [RILUZOLE] | 124.8% | 95.81%
CC[C@H](C)C(=O)O[C@H]1C[C@H](O)C=C2C=C[C@H](C)[C@H](CC[C@@H](O)C[C@@H](O)CC(=O)[O-])[C@H]21.[Na+] [PRAVASTATIN SODIUM] | 102.8% | 100.3%
CC(=O)O[C@H]1C[C@@H](OC(C)=O)C(C)(C)[C@@H]2CC(=O)[C@]3(C)[C@H](CC[C@@]4(C)[C@H](c5ccoc5)OC(=O)[C@H]5O[C@]543)[C@@]12C | 72.19% | 55.58%
CN1Cc2c(ccc3c2OCO3)C2C(O)Cc3cc4c(cc3C21)OCO4 (stereo not drawn) [CHELIDONINE (+)] | 82.29% | 59.5%
Cc1[nH]c2ccccc2c1CN(C)C [2-METHYL GRAMINE] | 80.09% | 39.17%
CC1(C)CC2C1CC[C@]1(CBr)CCC3C(CC(=O)O)C(=O)O[C@@]32C1 (some centres undefined) [BROMO-3-HYDROXY-4-(SUCCIN-2-YL)-CARYOLANE gamma-LACTONE] | 50.1% | 26.83%
CC(=O)OCC(=O)[C@@]1(O)CC[C@H]2[C@@H]3CCC4=CC(=O)CC[C@]4(C)[C@H]3[C@@H](O)C[C@@]21C [HYDROCORTISONE ACETATE] | 91.1% | 93.94%
C[C@H]1CC[C@]2(NC1)O[C@H]1C[C@H]3[C@@H]4CC[C@H]5C[C@@H](O[C@@H]6O[C@H](CO)[C@H](O[C@@H]7O[C@H](CO)[C@@H](O)[C@H](O[C@@H]8OC[C@@H](O)[C@H](O)[C@H]8O)[C@H]7O[C@@H]7O[C@H](CO)[C@@H](O)[C@H](O)[C@H]7O)[C@H](O)[C@H]6O)CC[C@]5(C)[C@H]4CC[C@]3(C)[C@H]1[C@@H]2C [TOMATINE] | 100.3% | 96.72%
COc1cc2c(cc1OC)[C@@H]1C(=O)c3ccc(OC)c(CC=C(C)C)c3O[C@@H]1CO2 [ROTENONIC ACID, METHYL ETHER] | 108.1% | 77.03%
CCC(=O)OCC(=O)[C@]1(OC(=O)CC)[C@H](C)C[C@H]2[C@@H]3CCC4=CC(=O)C=C[C@]4(C)[C@@]3(F)[C@@H](O)C[C@]21C | 77.45% | 76.42%
